Laboratory results: patent US20260256704A1, “STEALTH-STABILIZED LIPO-POLYAMINO ACIDS” (POLYPEPTIDE THERAPEUTIC SOLUTIONS, S.L., priority 2022, published 2026)

Experiments:
HEK293 cells = assay: Luciferase assay for transfection efficiency in HEK293 cells; assay type: cell-based; conditions: at different concentrations (50-300 ng mRNA/well)
Experimental: (§1) HEK293 cells were cultured in DMEM high glucose with Glutamax (Gibco—Thermo Fisher #61965-059) supplemented with 10% of Fetal Bovine Serum (Hyclone #SV30160.03HI, provided by GE Healthcare Europe GmbH) and 1% penicillin/streptomycin. Transfections were carried out on 96-well plates containing 30000 cells/well in a final volume of 100 μl, and cells were incubated 24 hours at 37° C. and 5% CO2. After 24 h from cell seeding, the medium was removed and refreshed with 90 μl of complete medium. 10 μl of each LNPs formulation were added to the cells. After 24 hours cells were recovered and processed.
After 24 h post-incubation with the LNPs formulation, 100 μl of BrightGlo reagent (Promega #E2620) was added in each well following manufacturer instructions. After 5 minutes of incubation at room temperature luciferase activity was measured using VictorNivo (PerkinElmer). Data was represented as luminescence relative to the percentage of transfection relative to the positive control of transfection. […]

HeLa cells = assay: Luciferase assay for transfection efficiency in HeLa cells; assay type: cell-based; conditions: LNPs containing the conjugate
Experimental: as §1, with “HeLa” for “HEK293”, “10000” for “30000”, “cells. In the case of positive control (Lipofectamine™ 2000 Transfection Reagent, Invitrogen™), manufacturer guidelines were followed.” for “cells.”
After 24 h post-incubation with the LNPs formulation, 100 μl of BrightGlo reagent (Promega #E2620) was added in each well following manufacturer instructions. After 5 minutes of incubation at room temperature luciferase activity was measured using VictorNivo (PerkinElmer). Data was represented as luminescence relative to the percentage of transfection relative to the positive control of transfection.
The transfection data is represented as % of the positive control Lipofectamine™ 2000 being the positive control 100% after 24 h of treatment and cell viability is compared to non-treated (NT) cells, being the ATP content readout of NT (non-treated) cells equal to 100%.

| Substance | transfection efficiency relative to the commercial standard DMG-PEG (HEK293 cells) | transfection efficiency relative to the gold standard Lipofectamine (HeLa cells) |
| --- | --- | --- |
| C14-PSar [C14PSar] | comparable transfection to DMG-PEG |  |
| C14-PGA(Diol) [Lipo-PAA1] |  | 2.5 fold |
